Data: ChEMBL document CHEMBL4043168, “The design and SAR of a novel series of 2-aminopyridine based LRRK2 inhibitors” (Bioorg Med Chem Lett, 2017)

Columns and labels:
[1] = molecular target: Activated CDC42 kinase 1 (Homo sapiens) (UniProt Q07912); assay: Inhibition of ACK labeling at ATP binding site (TVSVAVKCLKPDVLSQPEAMDDFIR) in human PBMC at 1 uM
[2] = molecular target: Calcium/calmodulin-dependent protein kinase type II subunit alpha (Homo sapiens) (UniProt Q9UQM7); assay: Inhibition of CaMK2a labeling at conserved Lys2 (DLKPENLLLASK) in human PBMC at 1 uM
[3] = molecular target: Mitogen-activated protein kinase 3 (Homo sapiens) (UniProt P27361); assay: Inhibition of Erk1 ATP binding site (DLKPSNLLINTTCDLK) in human PBMC at 1 uM
[4] = molecular target: T1, Serine/threonine-protein kinase LATS1 (Homo sapiens) (UniProt O95835); assay: Inhibition of LATS1 conserved Lys1 (ALYATKTLR) in human PBMC at 1 uM
T1 sequence (whole entry): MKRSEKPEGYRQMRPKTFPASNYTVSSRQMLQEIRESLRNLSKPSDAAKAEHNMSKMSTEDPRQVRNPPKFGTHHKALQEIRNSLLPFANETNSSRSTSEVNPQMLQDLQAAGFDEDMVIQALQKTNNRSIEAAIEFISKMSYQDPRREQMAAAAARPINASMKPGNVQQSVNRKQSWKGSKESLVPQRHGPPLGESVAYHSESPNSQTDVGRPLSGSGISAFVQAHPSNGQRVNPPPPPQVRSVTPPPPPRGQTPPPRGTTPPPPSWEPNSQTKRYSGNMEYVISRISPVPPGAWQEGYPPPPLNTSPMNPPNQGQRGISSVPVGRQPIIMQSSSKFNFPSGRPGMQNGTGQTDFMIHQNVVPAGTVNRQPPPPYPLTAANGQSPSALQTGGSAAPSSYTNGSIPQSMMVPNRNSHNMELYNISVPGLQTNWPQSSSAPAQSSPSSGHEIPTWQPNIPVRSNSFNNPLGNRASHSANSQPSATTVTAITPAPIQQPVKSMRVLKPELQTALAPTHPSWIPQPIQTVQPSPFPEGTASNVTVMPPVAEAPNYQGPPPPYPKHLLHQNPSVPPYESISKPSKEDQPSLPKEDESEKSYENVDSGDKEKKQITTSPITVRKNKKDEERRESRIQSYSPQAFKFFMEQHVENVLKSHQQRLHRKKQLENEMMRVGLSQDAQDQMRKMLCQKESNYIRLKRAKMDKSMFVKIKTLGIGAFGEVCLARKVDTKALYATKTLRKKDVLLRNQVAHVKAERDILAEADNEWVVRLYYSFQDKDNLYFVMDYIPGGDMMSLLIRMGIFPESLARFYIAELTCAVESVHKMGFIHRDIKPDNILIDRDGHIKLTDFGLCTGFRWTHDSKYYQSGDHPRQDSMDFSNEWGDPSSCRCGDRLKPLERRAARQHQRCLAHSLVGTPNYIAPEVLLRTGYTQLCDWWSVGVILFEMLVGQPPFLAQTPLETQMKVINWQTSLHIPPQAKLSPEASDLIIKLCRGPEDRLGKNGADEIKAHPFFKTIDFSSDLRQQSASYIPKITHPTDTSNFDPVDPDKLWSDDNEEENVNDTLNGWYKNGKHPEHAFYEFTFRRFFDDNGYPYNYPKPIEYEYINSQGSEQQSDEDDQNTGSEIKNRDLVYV

[5] = molecular target: Phosphatidylinositol 4-kinase beta (Homo sapiens) (UniProt Q9UBF8); assay: Inhibition of PI4KB ATP binding site (VPHTQAVVLNSKDK) in human PBMC at 1 uM
[6] = molecular target: T2, Tyrosine-protein kinase JAK3 (Homo sapiens) (UniProt P52333); assay: Inhibition of JAK3 domain2 activation Loop (IADFGLAKLLPLDKDYYVVR) in human PBMC at 0.1 uM
T2 sequence (whole entry): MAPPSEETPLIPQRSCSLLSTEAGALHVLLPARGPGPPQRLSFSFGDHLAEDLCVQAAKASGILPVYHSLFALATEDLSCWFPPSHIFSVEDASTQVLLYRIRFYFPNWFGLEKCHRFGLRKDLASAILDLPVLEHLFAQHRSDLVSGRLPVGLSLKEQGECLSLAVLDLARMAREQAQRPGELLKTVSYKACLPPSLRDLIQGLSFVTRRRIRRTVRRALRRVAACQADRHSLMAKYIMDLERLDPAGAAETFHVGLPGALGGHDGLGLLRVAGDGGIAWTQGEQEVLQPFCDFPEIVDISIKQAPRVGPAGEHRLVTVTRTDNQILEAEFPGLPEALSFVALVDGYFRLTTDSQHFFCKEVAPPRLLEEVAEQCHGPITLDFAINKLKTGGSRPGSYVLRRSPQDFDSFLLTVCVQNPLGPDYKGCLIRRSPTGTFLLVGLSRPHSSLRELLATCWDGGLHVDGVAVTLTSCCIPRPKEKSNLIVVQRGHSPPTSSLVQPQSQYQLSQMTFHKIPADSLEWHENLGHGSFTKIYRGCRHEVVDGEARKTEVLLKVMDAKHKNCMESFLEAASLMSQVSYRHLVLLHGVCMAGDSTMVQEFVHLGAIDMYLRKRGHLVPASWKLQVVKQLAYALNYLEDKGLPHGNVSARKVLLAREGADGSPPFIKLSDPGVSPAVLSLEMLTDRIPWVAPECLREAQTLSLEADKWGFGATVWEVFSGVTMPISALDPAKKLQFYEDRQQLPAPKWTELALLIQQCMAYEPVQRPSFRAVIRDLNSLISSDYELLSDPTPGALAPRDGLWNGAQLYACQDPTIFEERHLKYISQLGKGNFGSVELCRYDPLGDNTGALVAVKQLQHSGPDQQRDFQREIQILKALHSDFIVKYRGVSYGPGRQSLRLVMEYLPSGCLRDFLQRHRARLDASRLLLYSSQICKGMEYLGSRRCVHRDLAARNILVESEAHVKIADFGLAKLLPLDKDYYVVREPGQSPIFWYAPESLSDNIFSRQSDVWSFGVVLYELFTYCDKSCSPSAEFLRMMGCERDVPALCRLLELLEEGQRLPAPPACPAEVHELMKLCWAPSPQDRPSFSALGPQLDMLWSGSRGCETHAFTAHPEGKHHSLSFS

[7] = molecular target: Mitogen-activated protein kinase kinase kinase 2 (Homo sapiens) (UniProt Q9Y2U5); assay: Inhibition of MAP3K2 conserved Lys2 (DIKGANILR) in human PBMC at 0.1 uM
[8] = molecular target: MAP/microtubule affinity-regulating kinase 3 (Homo sapiens) (UniProt P27448); assay: Inhibition of MARK3 conserved Lys1 (EVAIKIIDK) in human PBMC at 0.1 uM
[9] = molecular target: Serine/threonine-protein kinase Nek4 (Homo sapiens) (UniProt P51957); assay: Inhibition of NEK4 conserved Lys2 (DLKTQNVFLTR) in human PBMC at 0.1 uM
[10] = molecular target: Serine/threonine-protein kinase SMG1 (Homo sapiens) (UniProt Q96Q15); assay: Inhibition of SMG1 ATP binding site (SYPYLFKGLEDLHLDER) in human PBMC at 0.1 uM

Chain of Mitogen-activated protein kinase kinase kinase 2 (Homo sapiens) (Q9Y2U5 whole entry): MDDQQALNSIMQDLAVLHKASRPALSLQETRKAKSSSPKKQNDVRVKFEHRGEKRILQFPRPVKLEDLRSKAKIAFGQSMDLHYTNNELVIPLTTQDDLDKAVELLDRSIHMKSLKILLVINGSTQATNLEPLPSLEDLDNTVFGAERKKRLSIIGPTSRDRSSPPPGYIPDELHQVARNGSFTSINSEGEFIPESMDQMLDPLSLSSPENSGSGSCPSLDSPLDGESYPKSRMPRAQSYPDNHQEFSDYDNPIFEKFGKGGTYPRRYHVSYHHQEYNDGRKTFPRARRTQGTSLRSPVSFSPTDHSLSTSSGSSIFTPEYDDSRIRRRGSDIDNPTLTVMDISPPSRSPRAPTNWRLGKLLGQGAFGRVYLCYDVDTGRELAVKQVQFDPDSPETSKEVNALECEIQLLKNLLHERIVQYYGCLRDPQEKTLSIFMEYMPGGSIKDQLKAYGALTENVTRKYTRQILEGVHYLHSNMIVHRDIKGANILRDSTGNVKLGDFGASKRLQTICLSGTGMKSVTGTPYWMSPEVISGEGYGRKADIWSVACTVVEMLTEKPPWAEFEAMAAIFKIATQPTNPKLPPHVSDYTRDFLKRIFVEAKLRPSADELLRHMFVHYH
Chain of Mitogen-activated protein kinase 3 (Homo sapiens) (P27361 whole entry): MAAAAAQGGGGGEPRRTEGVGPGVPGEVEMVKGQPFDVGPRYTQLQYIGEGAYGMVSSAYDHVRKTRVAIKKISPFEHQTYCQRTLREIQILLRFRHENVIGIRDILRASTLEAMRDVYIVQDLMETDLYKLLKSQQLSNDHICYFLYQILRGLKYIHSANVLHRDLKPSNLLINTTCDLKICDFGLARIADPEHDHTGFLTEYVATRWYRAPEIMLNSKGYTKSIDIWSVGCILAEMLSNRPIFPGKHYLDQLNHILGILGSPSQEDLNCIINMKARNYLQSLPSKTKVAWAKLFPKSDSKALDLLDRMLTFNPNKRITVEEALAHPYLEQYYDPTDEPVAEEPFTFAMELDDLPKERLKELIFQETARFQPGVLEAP
Chain of Activated CDC42 kinase 1 (Homo sapiens) (Q07912 whole entry, looked up): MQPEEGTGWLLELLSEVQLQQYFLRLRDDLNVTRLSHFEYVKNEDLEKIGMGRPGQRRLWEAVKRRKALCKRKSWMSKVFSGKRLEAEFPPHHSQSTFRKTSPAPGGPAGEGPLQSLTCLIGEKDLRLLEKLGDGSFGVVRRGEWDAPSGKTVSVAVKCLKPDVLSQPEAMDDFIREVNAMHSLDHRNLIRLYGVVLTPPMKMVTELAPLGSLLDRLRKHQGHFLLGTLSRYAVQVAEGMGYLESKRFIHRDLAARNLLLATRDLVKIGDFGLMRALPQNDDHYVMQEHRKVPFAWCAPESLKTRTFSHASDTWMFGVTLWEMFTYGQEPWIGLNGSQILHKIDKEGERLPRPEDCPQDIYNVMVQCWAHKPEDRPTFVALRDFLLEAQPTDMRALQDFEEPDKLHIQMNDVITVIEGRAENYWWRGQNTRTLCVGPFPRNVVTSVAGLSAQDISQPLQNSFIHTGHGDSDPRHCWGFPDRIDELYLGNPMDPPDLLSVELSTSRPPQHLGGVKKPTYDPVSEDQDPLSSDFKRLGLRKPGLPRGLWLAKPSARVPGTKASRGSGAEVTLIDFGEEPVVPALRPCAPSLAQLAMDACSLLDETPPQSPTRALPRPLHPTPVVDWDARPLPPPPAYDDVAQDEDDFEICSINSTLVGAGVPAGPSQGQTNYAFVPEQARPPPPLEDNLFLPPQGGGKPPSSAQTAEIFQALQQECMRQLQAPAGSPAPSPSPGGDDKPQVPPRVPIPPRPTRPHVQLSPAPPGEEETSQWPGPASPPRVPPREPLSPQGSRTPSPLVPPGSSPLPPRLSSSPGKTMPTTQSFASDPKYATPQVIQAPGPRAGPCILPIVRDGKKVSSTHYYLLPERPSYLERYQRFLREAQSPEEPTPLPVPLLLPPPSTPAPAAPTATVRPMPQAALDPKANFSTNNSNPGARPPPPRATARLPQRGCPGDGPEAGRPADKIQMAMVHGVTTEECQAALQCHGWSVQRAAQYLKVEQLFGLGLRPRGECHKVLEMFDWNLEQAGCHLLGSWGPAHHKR
Chain of Serine/threonine-protein kinase Nek4 (Homo sapiens) (P51957 whole entry, looked up): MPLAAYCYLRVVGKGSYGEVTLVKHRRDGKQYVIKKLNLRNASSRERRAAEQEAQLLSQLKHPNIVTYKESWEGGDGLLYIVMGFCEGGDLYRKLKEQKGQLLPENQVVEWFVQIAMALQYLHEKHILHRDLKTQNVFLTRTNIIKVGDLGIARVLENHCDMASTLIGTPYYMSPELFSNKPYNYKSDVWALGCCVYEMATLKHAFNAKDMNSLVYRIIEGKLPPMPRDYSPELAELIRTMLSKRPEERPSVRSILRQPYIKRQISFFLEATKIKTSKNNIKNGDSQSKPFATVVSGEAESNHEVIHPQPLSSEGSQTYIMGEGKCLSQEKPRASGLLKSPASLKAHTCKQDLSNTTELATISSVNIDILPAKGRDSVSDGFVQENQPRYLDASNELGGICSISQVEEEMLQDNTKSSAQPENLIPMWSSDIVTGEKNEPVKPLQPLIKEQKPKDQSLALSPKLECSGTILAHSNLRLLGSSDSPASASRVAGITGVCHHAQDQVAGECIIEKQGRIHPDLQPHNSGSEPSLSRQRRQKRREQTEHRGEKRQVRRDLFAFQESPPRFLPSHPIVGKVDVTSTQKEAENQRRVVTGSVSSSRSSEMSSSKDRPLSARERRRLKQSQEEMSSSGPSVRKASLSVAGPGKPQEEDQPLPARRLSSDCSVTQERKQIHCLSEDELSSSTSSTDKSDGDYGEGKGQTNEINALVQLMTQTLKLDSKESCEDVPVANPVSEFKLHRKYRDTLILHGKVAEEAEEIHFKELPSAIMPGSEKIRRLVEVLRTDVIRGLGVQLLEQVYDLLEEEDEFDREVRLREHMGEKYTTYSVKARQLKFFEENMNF
Chain of Phosphatidylinositol 4-kinase beta (Homo sapiens) (Q9UBF8 2-816 limits assumed): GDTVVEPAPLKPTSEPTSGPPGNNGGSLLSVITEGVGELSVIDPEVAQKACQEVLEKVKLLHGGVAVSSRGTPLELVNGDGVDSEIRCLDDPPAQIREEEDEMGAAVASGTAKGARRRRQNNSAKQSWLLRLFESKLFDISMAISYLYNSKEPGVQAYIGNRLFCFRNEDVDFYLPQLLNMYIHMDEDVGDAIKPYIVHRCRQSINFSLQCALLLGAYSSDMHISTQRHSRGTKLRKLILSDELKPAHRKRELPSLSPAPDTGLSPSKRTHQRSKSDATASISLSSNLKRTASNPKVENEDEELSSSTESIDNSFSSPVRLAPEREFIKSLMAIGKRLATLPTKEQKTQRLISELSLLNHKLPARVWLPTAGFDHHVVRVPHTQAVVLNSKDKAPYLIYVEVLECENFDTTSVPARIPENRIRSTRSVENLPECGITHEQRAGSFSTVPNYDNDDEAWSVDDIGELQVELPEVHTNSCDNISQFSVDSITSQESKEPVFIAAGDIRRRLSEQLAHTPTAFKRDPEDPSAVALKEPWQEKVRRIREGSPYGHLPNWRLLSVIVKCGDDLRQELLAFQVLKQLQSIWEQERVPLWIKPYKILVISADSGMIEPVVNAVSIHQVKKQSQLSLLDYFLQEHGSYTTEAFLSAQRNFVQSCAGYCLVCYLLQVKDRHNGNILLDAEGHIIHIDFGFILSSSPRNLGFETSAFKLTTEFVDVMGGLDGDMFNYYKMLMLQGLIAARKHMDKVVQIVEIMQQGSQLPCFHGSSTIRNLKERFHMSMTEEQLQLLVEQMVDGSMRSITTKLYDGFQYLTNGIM
Chain of MAP/microtubule affinity-regulating kinase 3 (Homo sapiens) (P27448 whole entry, looked up): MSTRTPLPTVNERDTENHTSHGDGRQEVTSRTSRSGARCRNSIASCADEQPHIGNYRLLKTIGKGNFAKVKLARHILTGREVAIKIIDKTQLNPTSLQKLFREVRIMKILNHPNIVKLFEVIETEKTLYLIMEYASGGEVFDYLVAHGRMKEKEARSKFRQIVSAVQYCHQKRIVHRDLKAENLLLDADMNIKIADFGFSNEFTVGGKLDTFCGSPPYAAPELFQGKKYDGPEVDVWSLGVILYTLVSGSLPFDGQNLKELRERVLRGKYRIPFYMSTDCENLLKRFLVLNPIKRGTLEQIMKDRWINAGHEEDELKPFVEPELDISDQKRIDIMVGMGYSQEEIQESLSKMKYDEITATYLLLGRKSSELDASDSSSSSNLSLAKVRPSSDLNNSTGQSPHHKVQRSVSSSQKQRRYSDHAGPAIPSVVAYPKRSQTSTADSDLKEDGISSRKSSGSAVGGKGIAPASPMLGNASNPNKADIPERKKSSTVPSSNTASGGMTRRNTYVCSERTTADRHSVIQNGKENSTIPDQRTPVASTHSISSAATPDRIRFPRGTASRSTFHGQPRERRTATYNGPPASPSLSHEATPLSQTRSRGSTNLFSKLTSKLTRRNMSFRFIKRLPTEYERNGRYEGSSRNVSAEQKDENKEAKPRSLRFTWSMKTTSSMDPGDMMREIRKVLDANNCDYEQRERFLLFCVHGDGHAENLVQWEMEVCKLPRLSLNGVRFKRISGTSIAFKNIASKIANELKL
Chain of Calcium/calmodulin-dependent protein kinase type II subunit alpha (Homo sapiens) (Q9UQM7 whole entry): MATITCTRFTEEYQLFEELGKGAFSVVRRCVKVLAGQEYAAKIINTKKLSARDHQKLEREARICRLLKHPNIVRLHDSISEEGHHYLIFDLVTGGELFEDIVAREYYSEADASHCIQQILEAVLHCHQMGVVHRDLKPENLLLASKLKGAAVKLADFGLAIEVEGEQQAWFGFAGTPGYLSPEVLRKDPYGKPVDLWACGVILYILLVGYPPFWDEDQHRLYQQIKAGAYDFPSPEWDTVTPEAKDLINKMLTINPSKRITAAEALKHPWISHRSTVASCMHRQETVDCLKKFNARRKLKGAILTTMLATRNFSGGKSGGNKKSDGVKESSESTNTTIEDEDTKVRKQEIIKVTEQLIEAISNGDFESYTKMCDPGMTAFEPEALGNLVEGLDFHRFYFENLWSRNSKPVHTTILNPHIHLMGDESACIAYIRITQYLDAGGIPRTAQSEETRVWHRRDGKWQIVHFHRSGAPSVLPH

CC(C)n1cc(-c2cc(-c3ccc(CN4CCOCC4)cc3)cnc2N)nn1
inhibition [1]: -5.7% | inhibition [2]: -0.4% | inhibition [3]: 4.2% | inhibition [4]: 30.1% | inhibition [5]: 2.2% | inhibition [6]: 15.9% | inhibition [7]: 23.2% | inhibition [8]: -6.7% | inhibition [9]: 5.6% | inhibition [10]: 12.7%
